Data reported in patent US20100298141A1, “SUBSTITUTED PYRIDINE N-OXIDE HERBICIDES” (E. I. DU PONT DE NEMOURS AND COMPANY, priority 2007, published 2010).

What was measured:
[1] = tested on: barnyardgrass; experiment: Test C flooded paddy test; format: in vivo, Echinochloa crus-galli; details: Flood
Outline: (§1)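 Compound was added to standing water 3 cm above soil, flood maintained, and plants held in a greenhouse before visual scoring against controls at 13 to 15 days.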

[2] = tested on: Italian ryegrass; experiment: Test C pre-/postemergence test; format: in vivo, Lolium multiflorum; details: for Plant response rating, Ryegrass, Italian: 31 g ai/ha, scale 0 to 100 (0 no effect, 100 complete control)
Outline: (§2)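 Test chemicals were formulated with surfactant in a non-phytotoxic solvent and sprayed both on freshly planted seeds (preemergence) and on 1- to 4-leaf plants of 2–18 cm (postemergence). Flooded-paddy pots received compound directly into 3 cm of standing water, maintained for the test.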

[3] = tested on: morningglory; experiment: Test A pre-/postemergence greenhouse test; format: in vivo, Ipomoea spp.; details: for Plant response rating, Morningglory: 0 to 100 scale where 0 is no effect and 100 is complete control; for Morningglory plant response rating: 0 to 100 scale
Outline: (§3)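 Pre: directed soil spray on seeded loam/sand. Post: foliar spray, plants 2–10 cm, 1–2 leaf stage, applied concurrently. Vehicle: non-phytotoxic solvent + surfactant. Greenhouse ~10 d; visual injury rating vs untreated controls.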

[4] = tested on: yellow nutsedge; experiment: Test C pre-/postemergence test; format: in vivo, Cyperus esculentus; details: for Plant response rating, Nutsedge, Yellow: 31 g ai/ha, scale 0 to 100 (0 no effect, 100 complete control)
Outline: as §2

[5] = tested on: bermudagrass; experiment: Test C pre-/postemergence test; format: in vivo, Cynodon dactylon; details: for Plant response rating, Bermudagrass: 31 g ai/ha
Outline: as §2

[6] = tested on: giant foxtail; experiment: Test A pre-/postemergence greenhouse test; format: in vivo, Setaria faberi; details: for Plant response rating, Foxtail, Giant: 0 to 100 scale where 0 is no effect and 100 is complete control; for Foxtail, Giant plant response rating: 0 to 100 scale
Outline: as §3

[7] = tested on: umbrella sedge; experiment: Test C flooded paddy test; format: in vivo, Cyperus difformis; details: Flood
Outline: as §1

[8] = tested on: catchweed bedstraw; experiment: Test C pre-/postemergence test; format: in vivo, Galium aparine; details: for Plant response rating, Galium: 31 g ai/ha, scale 0 to 100 (0 no effect, 100 complete control)
Outline: as §2

[9] = tested on: wheat; experiment: Test A pre-/postemergence greenhouse test; format: in vivo, Triticum aestivum; details: for Plant response rating, Wheat: 0 to 100 scale where 0 is no effect and 100 is complete control; for Wheat plant response rating: 0 to 100 scale
Outline: as §3

[10] = tested on: wheat; experiment: Test C pre-/postemergence test; format: in vivo, Triticum aestivum; details: for Plant response rating, Wheat: 31 g ai/ha, scale 0 to 100 (0 no effect, 100 complete control)
Outline: as §2

[11] = tested on: Goosegrass; experiment: Test C pre-/postemergence test; format: in vivo, Eleusin indica; details: for Plant response rating, Goosegrass: 31 g ai/ha, scale 0 to 100 (0 no effect, 100 complete control)
Outline: as §2

[12] = tested on: soybean; experiment: Test C pre-/postemergence test; format: in vivo, Glycine max
Outline: as §2

[13] = tested on: morningglory; experiment: Test C pre-/postemergence test; format: in vivo, Ipomoea coccinea; details: for Plant response rating, Morningglory: 31 g ai/ha, scale 0 to 100 (0 no effect, 100 complete control)
Outline: as §2

[14] = tested on: common (oilseed) sunflower; experiment: Test C pre-/postemergence test; format: in vivo, Helianthus annuus; details: for Plant response rating, Sunflower: 31 g ai/ha, scale 0 to 100 (0 no effect, 100 complete control)
Outline: as §2

[15] = tested on: corn; experiment: Test A pre-/postemergence greenhouse test; format: in vivo, Zea mays; details: for Plant response rating, Corn: 0 to 100 scale where 0 is no effect and 100 is complete control; for Corn plant response rating: 0 to 100 scale
Outline: as §3

[16] = tested on: crabgrass; experiment: Test A pre-/postemergence greenhouse test; format: in vivo, Digitaria sanguinalis; details: for Plant response rating, Crabgrass, Large: 0 to 100 scale where 0 is no effect and 100 is complete control; for Crabgrass, Large plant response rating: 0 to 100 scale
Outline: as §3

[17] = tested on: pigweed; experiment: Test C pre-/postemergence test; format: in vivo, Amaranthus retroflexus; details: for Plant response rating, Pigweed: 31 g ai/ha, scale 0 to 100 (0 no effect, 100 complete control)
Outline: as §2

[18] = 62 g ai/ha, scale 0 to 100 (0 no effect, 100 complete control)
[19] = 250 g ai/ha, scale 0 to 100, 0 no effect, 100 complete control, 13 to 15 days
[20] = 62 g ai/ha, Preemergence, scale 0 to 100
[21] = 125 g ai/ha, preemergence, scale 0 (no effect) to 100 (complete control)
[22] = preemergence, 250 g ai/ha, scale 0 (no effect) to 100 (complete control)
[23] = Postemergence, 500 g ai/ha, 0 is no effect, 100 is complete control
[24] = Preemergence, 125 g ai/ha, 0 no effect, 100 complete control
[25] = 62 g ai/ha, Preemergence, scale 0 to 100 (0 no effect, 100 complete control)
[26] = Preemergence, scale 0 to 100 (0 no effect, 100 complete control)

CCc1cc[n+]([O-])c([S+]([O-])Cc2c(C(F)(F)F)nn(C)c2OCC(F)(F)F)c1 (stereo not drawn) [Compound 59]
Plant response rating, Barnyardgrass [1, 18]: 30 | Plant response rating, Barnyardgrass [1, 19]: 60 | Ryegrass, Italian plant response rating [2, 20]: 55 | Ryegrass, Italian plant response rating [2, 21]: 80 | Plant response rating, Ryegrass, Italian ([2]; Preemergence): 30 | Ryegrass, Italian plant response rating [2, 22]: 95 | Plant response rating, Morningglory ([3]; Postemergence, 125 g ai/ha): 50 | Morningglory plant response rating [3, 23]: 90 | Morningglory plant response rating [3, 24]: 70 | Plant response rating, Morningglory ([3]; Preemergence, 500 g ai/ha): 100 | Nutsedge, Yellow plant response rating [4, 20]: 30 | Nutsedge, Yellow plant response rating [4, 21]: 85 | Plant response rating, Nutsedge, Yellow ([4]; Preemergence): 0 | Nutsedge, Yellow plant response rating [4, 22]: 95 | Bermudagrass plant response rating [5, 25]: 100 | Bermudagrass plant response rating [5, 21]: 100 | Plant response rating, Bermudagrass [5, 26]: 70 | Bermudagrass plant response rating [5, 22]: 100 | Plant response rating, Foxtail, Giant ([6]; Postemergence, 125 g ai/ha): 60 | Foxtail, Giant plant response rating [6, 23]: 90 | Foxtail, Giant plant response rating [6, 24]: 100 | Plant response rating, Foxtail, Giant ([6]; Preemergence, 500 g ai/ha): 100 | Plant response rating, Sedge, Umbrella [7, 18]: 80 | Plant response rating, Sedge, Umbrella [7, 19]: 100 | Galium plant response rating [8, 20]: 100 | Galium plant response rating [8, 21]: 100 | Plant response rating, Galium ([8]; Preemergence): 0 | Galium plant response rating [8, 22]: 100 | Plant response rating, Wheat ([9]; Postemergence, 125 g ai/ha): 60 | Wheat plant response rating [9, 23]: 70 | Wheat plant response rating [9, 24]: 60 | Plant response rating, Wheat ([9]; Preemergence, 500 g ai/ha): 90 | Wheat plant response rating [10, 20]: 40 | Wheat plant response rating [10, 21]: 85 | Plant response rating, Wheat ([10]; Preemergence): 30 | Wheat plant response rating [10, 22]: 95 | Goosegrass plant response rating [11, 20]: 100 | Goosegrass plant response rating [11, 21]: 100 | Plant response rating, Goosegrass ([11]; Preemergence): 100 | Goosegrass plant response rating [11, 22]: 100 | Soybean plant response rating [12, 20]: 10 | Soybean plant response rating [12, 21]: 100 | Soybean plant response rating [12, 22]: 100 | Morningglory plant response rating [13, 20]: 100 | Morningglory plant response rating [13, 21]: 100 | Plant response rating, Morningglory ([13]; Preemergence): 50 | Morningglory plant response rating [13, 22]: 100 | Sunflower plant response rating [14, 20]: 85 | Sunflower plant response rating [14, 21]: 85 | Plant response rating, Sunflower ([14]; Preemergence): 40 | Sunflower plant response rating [14, 22]: 100 | Plant response rating, Corn ([15]; Postemergence, 125 g ai/ha): 50 | Corn plant response rating [15, 23]: 70 | Corn plant response rating [15, 24]: 20 | Plant response rating, Corn ([15]; Preemergence, 500 g ai/ha): 90 | Plant response rating, Crabgrass, Large ([16]; Postemergence, 125 g ai/ha): 50 | Crabgrass, Large plant response rating [16, 23]: 90 | Crabgrass, Large plant response rating [16, 24]: 90 | Plant response rating, Crabgrass, Large ([16]; Preemergence, 500 g ai/ha): 100 | Pigweed plant response rating [17, 20]: 100 | Pigweed plant response rating [17, 21]: 100 | Plant response rating, Pigweed ([17]; Preemergence): 0 | Pigweed plant response rating [17, 22]: 100

CCc1cc[n+]([O-])c(S(=O)(=O)Cc2c(C(F)(F)F)nn(C)c2OCC(F)(F)F)c1 [Compound 60]
Plant response rating, Barnyardgrass [1, 18]: 20 | Plant response rating, Barnyardgrass [1, 19]: 45 | Ryegrass, Italian plant response rating [2, 20]: 75 | Ryegrass, Italian plant response rating [2, 21]: 80 | Plant response rating, Ryegrass, Italian ([2]; Preemergence): 20 | Ryegrass, Italian plant response rating [2, 22]: 90 | Plant response rating, Morningglory ([3]; Postemergence, 125 g ai/ha): 50 | Morningglory plant response rating [3, 23]: 60 | Morningglory plant response rating [3, 24]: 70 | Plant response rating, Morningglory ([3]; Preemergence, 500 g ai/ha): 100 | Nutsedge, Yellow plant response rating [4, 20]: 50 | Nutsedge, Yellow plant response rating [4, 21]: 100 | Plant response rating, Nutsedge, Yellow ([4]; Preemergence): 20 | Nutsedge, Yellow plant response rating [4, 22]: 100 | Bermudagrass plant response rating [5, 25]: 100 | Bermudagrass plant response rating [5, 21]: 100 | Plant response rating, Bermudagrass [5, 26]: 100 | Bermudagrass plant response rating [5, 22]: 100 | Plant response rating, Foxtail, Giant ([6]; Postemergence, 125 g ai/ha): 60 | Foxtail, Giant plant response rating [6, 23]: 90 | Foxtail, Giant plant response rating [6, 24]: 100 | Plant response rating, Foxtail, Giant ([6]; Preemergence, 500 g ai/ha): 100 | Plant response rating, Sedge, Umbrella [7, 18]: 0 | Plant response rating, Sedge, Umbrella [7, 19]: 80 | Galium plant response rating [8, 20]: 100 | Galium plant response rating [8, 21]: 100 | Plant response rating, Galium ([8]; Preemergence): 0 | Galium plant response rating [8, 22]: 100 | Plant response rating, Wheat ([9]; Postemergence, 125 g ai/ha): 50 | Wheat plant response rating [9, 23]: 60 | Wheat plant response rating [9, 24]: 50 | Plant response rating, Wheat ([9]; Preemergence, 500 g ai/ha): 70 | Wheat plant response rating [10, 20]: 15 | Wheat plant response rating [10, 21]: 30 | Plant response rating, Wheat ([10]; Preemergence): 0 | Wheat plant response rating [10, 22]: 100 | Goosegrass plant response rating [11, 20]: 100 | Goosegrass plant response rating [11, 21]: 100 | Plant response rating, Goosegrass ([11]; Preemergence): 100 | Goosegrass plant response rating [11, 22]: 100 | Soybean plant response rating [12, 20]: 50 | Soybean plant response rating [12, 21]: 50 | Soybean plant response rating [12, 22]: 85 | Morningglory plant response rating [13, 20]: 90 | Morningglory plant response rating [13, 21]: 100 | Plant response rating, Morningglory ([13]; Preemergence): 50 | Morningglory plant response rating [13, 22]: 100 | Sunflower plant response rating [14, 20]: 55 | Sunflower plant response rating [14, 21]: 70 | Plant response rating, Sunflower ([14]; Preemergence): 40 | Sunflower plant response rating [14, 22]: 80 | Plant response rating, Corn ([15]; Postemergence, 125 g ai/ha): 30 | Corn plant response rating [15, 23]: 60 | Corn plant response rating [15, 24]: 0 | Plant response rating, Corn ([15]; Preemergence, 500 g ai/ha): 50 | Plant response rating, Crabgrass, Large ([16]; Postemergence, 125 g ai/ha): 50 | Crabgrass, Large plant response rating [16, 23]: 80 | Crabgrass, Large plant response rating [16, 24]: 90 | Plant response rating, Crabgrass, Large ([16]; Preemergence, 500 g ai/ha): 100 | Pigweed plant response rating [17, 20]: 100 | Pigweed plant response rating [17, 21]: 100 | Plant response rating, Pigweed ([17]; Preemergence): 100 | Pigweed plant response rating [17, 22]: 100
